In patent US20220233512A1, “INHIBITING AN IMMUNE RESPONSE MEDIATED BY ONE OR MORE OF TLR2, RAGE, CCR5, CXCR4 AND CD4” (priority 2020, published 2022):

Target: T1, mu opiate receptor (MOR) (Rattus norvegicus, UniProt P33535)
T1 construct: from tissue; host or cells: striatum (membrane preparation)
Test: MOR agonist activity using [35S]GTPgS binding assay in striatal membranes
Assay type: biochemical
Description: To assess the mu opiate receptor (MOR) agonist activity of positive compounds from the FLNA screening, compounds were tested in a [^35S]GTPgS binding assay using striatal membranes. […] This assay measures a functional consequence of receptor occupancy at one of the earliest receptor-mediated events. The assay permits for traditional pharmacological parameters of potency, efficacy and antagonist affinity, with the advantage that agonist measures are not subjected to amplification or other modulation that may occur when analyzing parameters further downstream of the receptor.
Thus, striatal tissue was homogenized in 10 volumes of ice cold 25 mM HEPES buffer, pH 7.4, which contained 1 mM EGTA, 100 mM sucrose, 50 mg/ml leupeptin, 0.04 mM PMSF, 2 mg/ml soybean trypsin inhibitor and 0.2% 2-mercaptoethanol. The homogenates were centrifuged at 800×g for 5 minutes and the supernatants were centrifuged at 49,000×g for 20 minutes. The resulting pellets were suspended in 10 volume of reaction buffer, which contained 25 mM HEPES, pH 7.5, 100 mM NaCl, 50 mg/ml leupeptin, 2 mg/ml soybean trypsin inhibitor, 0.04 mM PMSF and 0.02% […].
The resultant striatal membrane preparation (200 mg) was admixed and maintained (incubated) at 30° C. for 5 minutes in reaction buffer as above that additionally contained 1 mM MgCl2 and 0.5 nM [^35S]GTPgS (0.1 mCi/assay, PerkinElmer Life and Analytical Sciences) in a total volume of 250 ml and continued for 5 minutes in the absence or presence of 0.1-10 mM of an assayed compound of interest. The reaction was terminated by dilution with 750 ml of ice-cold reaction buffer that contained 20 mM MgCl2 and 1 mM EGTA and immediate centrifugation at 16,000×g for 5 minutes.
The resulting pellet was solubilized by sonicating for 10 seconds in 0.5 ml of immunoprecipitation buffer containing 0.5% digitonin, 0.2% sodium cholate and 0.5% NP-40. Normal rabbit serum (1 ml) was added to 1 ml of lysate and incubated at 25° C. for 30 minutes. Nonspecific immune complexes were removed by incubation with 25 ml of protein A/G-conjugated agarose beads at 25° C. for 30 minutes followed by centrifugation at 5,000×g at 4° C. for 5 minutes. The supernatant was divided and separately incubated at 25° C. for 30 minutes with antibodies raised against Gao proteins (1:1,000 dilutions).
The immunocomplexes so formed were collected by incubation at 25° C. for 30 minutes with 40 ml of agarose-conjugated protein A/G beads and centrifugation at 5,000×g at 4° C. for 5 minutes. The pellet was washed and suspended in buffer containing 50 mM Tris-HCl, pH 8.0, and 1% NP-40. The radioactivity in the suspension was determined by liquid scintillation spectrometry. […] DAMGO (1 or 10 mM) was used as a positive control.

[1] = 0.1 μM compound as agonist, Series C-1 table
[2] = 1 μM compound as agonist, Series C-1 table
[3] = 0.1 μM compound as agonist, Series C-2 table
[4] = 1 μM compound as agonist, Series C-2 table

T1 sequence (P33535 whole entry): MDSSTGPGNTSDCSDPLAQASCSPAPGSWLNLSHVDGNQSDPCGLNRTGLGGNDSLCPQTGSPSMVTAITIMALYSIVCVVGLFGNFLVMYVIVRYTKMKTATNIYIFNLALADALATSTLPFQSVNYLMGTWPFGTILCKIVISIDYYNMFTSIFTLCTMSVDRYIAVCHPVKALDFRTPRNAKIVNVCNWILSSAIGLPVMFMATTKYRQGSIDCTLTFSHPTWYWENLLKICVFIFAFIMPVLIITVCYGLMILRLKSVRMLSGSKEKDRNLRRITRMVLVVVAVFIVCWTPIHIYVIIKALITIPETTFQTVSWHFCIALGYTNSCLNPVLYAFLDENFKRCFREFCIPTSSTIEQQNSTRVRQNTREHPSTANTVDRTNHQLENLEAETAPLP

Row | Structure (SMILES) | MOR agonist activity ([35S]GTPgS binding to Gao) [1] [%] | MOR agonist activity ([35S]GTPgS binding to Gao) (1 μM + BFNA, Series C-1 table) [%] | MOR agonist activity ([35S]GTPgS binding to Gao) [2] [%] | MOR agonist activity ([35S]GTPgS binding to Gao) [3] [%] | MOR agonist activity ([35S]GTPgS binding to Gao) (1 μM + BFNA, Series C-2 table) [%] | MOR agonist activity ([35S]GTPgS binding to Gao) [4] [%]
1 | COC(=O)c1ccc(S(=O)(=O)N2CCC3(CC2)OCCN3S(=O)(=O)c2ccc(C(=O)OC)cc2)cc1 [Compound C0028] | 93.9 | 78.4 | 132.4 | – | – | –
2 | O=S(=O)(c1ccc(F)cc1)N1CCC2(CC1)OCCN2S(=O)(=O)c1ccc(F)cc1 [Compound C0029] | 175.4 | 16.6 | 308.8 | – | – | –
3 | CCCCc1ccc(S(=O)(=O)N2CCC3(CC2)OCCN3S(=O)(=O)c2ccc(CCCC)cc2)cc1 [Compound C0030] | 150.3 | 95.0 | 226.8 | – | – | –
4 | O=C(c1ccc([N+](=O)[O-])cc1)N1CCC2(CC1)OCCN2C(=O)c1ccc([N+](=O)[O-])cc1 [Compound C0032] | 145.4 | 80.9 | 202.0 | – | – | –
5 | O=C(c1ccc([N+](=O)[O-])cc1)N1CCC2(CC1)OCCN2S(=O)(=O)c1ccc([N+](=O)[O-])cc1 [Compound C0033] | 134.5 | 76.6 | 186.4 | – | – | –
6 | NS(=O)(=O)c1ccc(S(=O)(=O)N2CCC3(CC2)OCCN3S(=O)(=O)c2ccc(S(N)(=O)=O)cc2)cc1 [Compound C0034] | 103.6 | 80.1 | 167.9 | – | – | –
7 | O=[N+]([O-])c1ccc(S(=O)(=O)N2CCC3(CC2)NCCO3)cc1 [Compound C0040] | – | – | – | 145.8 | 90.4 | 308.3
8 | COc1ccc(NC(=O)N2CCC3(CC2)OCCN3S(=O)(=O)c2ccc(OC)cc2)cc1 [Compound C0041] | 186.1 | 95.5 | 244.4 | – | – | –
9 | O=C(OCc1ccccc1)c1ccc(S(=O)(=O)N2CCC3(CC2)OCCN3S(=O)(=O)c2ccc(C(=O)OCc3ccccc3)cc2)cc1 [Compound C0042] | 167.1 | 110.6 | 260.9 | – | – | –
10 | COc1ccc(S(=O)(=O)N2CCOC23CCN(C(=O)OC(C)(C)C)CC3)cc1 [Compound C0043] | – | – | – | 175.4 | 83.3 | 242.6
11 | O=[N+]([O-])c1ccc(S(=O)(=O)N2CCC3(CC2)NCCS3)cc1 [Compound C0044] | – | – | – | 173.7 | 59.1 | 280.1
12 | O=[N+]([O-])c1ccc(S(=O)(=O)N2CCC3(CC2)NCCCO3)cc1 [Compound C0045] | – | – | – | 149.2 | 105.3 | 238.8
13 | CC(=O)c1ccc(S(=O)(=O)N2CCOC23CCNCC3)cc1 [Compound C0046] | – | – | – | 286.2 | 156.8 | 492.9
14 | COc1ccc(S(=O)(=O)N2CCOC23CCN(S(=O)(=O)c2ccc(C(C)=O)cc2)CC3)cc1 [Compound C0047] | 142.2 | 80.1 | 206.1 | – | – | –
15 | COc1ccc(S(=O)(=O)N2CCC3(CC2)OCCN3S(=O)(=O)c2ccc(C(C)=O)cc2)cc1 [Compound C0048] | 209.1 | 89.9 | 245.3 | – | – | –
